According to the supplement of paper PMC6045584:
± gives the standard deviation of the averaged measurements.

Tests used:
CANERTINIB [1] = compound: T1, C=CC(=O)Nc1cc2c(Nc3ccc(F)c(Cl)c3)ncnc2cc1OCCCN1CCOCC1 [CANERTINIB]; assay: surviving fraction relative to DMSO-only wells; higher = less growth inhibition; settings: exposure time: 5 days
Outline: (§1)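 Viability was determined by CellTiter-Glo luminescence, expressed as surviving fraction normalised to the median of DMSO-only wells. The cells were log-phase tumour cell lines seeded at 250–500 per well in 384-well plates and, after 24 hours, exposed continuously for five days to inhibitors at 0.5, 1, 5, 10, 50, 100, 500 and 1000 nM. Three screens per line were run, keeping only lines with replicate Pearson r >0.7 and median Z' >0.3.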

SNX-5422 [2] = compound: T2, CC1(C)CC(=O)c2c(C(F)(F)F)nn(-c3ccc(C(N)=O)c(N[C@H]4CC[C@H](OC(=O)CN)CC4)c3)c2C1 [SNX-5422]; assay: as above; settings: exposure time: 5 days
Outline: as §1

SAPACITABINE [3] = compound: T3, CCCCCCCCCCCCCCCC(=O)Nc1ccn([C@@H]2O[C@H](CO)[C@@H](O)[C@@H]2C#N)c(=O)n1 [SAPACITABINE]; assay: as above; settings: exposure time: 5 days
Outline: as §1

BI-2536 [4] = compound: T4, CC[C@@H]1C(=O)N(C)c2cnc(Nc3ccc(C(=O)NC4CCN(C)CC4)cc3OC)nc2N1C1CCCC1 [BI-2536]; assay: as above; settings: exposure time: 5 days
Outline: as §1

AFATINIB [5] = compound: T5, CN(C)C/C=C/C(=O)Nc1cc2c(Nc3ccc(F)c(Cl)c3)ncnc2cc1O[C@H]1CCOC1 [AFATINIB]; assay: as above; settings: exposure time: 5 days
Outline: as §1

MDV3100 [6] = compound: T6, CNC(=O)c1ccc(N2C(=S)N(c3ccc(C#N)c(C(F)(F)F)c3)C(=O)C2(C)C)cc1F [MDV3100]; assay: as above; settings: exposure time: 5 days
Outline: as §1

[7] = compound: Cn1cc(C2=Nc3cc(NC(=O)C(N)C4CCCCC4)cc4c3C2=CNNC4=O)cn1; assay: as above; settings: exposure time: 5 days
Outline: as §1

TIOGUANINE [8] = compound: T7, Nc1nc2[nH]cnc2c(=S)[nH]1 [TIOGUANINE]; assay: as above; settings: exposure time: 5 days
Outline: as §1

CANERTINIB [9] = compound: T1, CANERTINIB; assay: area under dose-response curve of surviving fraction (unscaled, Aref=0) (surviving fraction x log10(nM)); higher = more resistant; settings: exposure time: 5 days; dose range 0.5-1000 nM
Outline: (§2)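 Each tumour cell line was screened three times in 384-well plates, receiving eight inhibitor concentrations from 0.5 to 1000 nM for five days. CellTiter-Glo luminescence gave viability, normalised to DMSO-only wells. Using the drc R package, surviving fractions were fitted with 3-parameter logistic dose-response curves, and the unscaled activity area over log10 dose (Aref = 0) was taken as the area under the curve.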

SNX-5422 [10] = compound: T2, SNX-5422; assay: as above; settings: exposure time: 5 days; dose range 0.5-1000 nM
Outline: as §2

SAPACITABINE [11] = compound: T3, SAPACITABINE; assay: as above; settings: exposure time: 5 days; dose range 0.5-1000 nM
Outline: as §2

BI-2536 [12] = compound: T4, BI-2536; assay: as above; settings: exposure time: 5 days; dose range 0.5-1000 nM
Outline: as §2

AFATINIB [13] = compound: T5, AFATINIB; assay: as above; settings: exposure time: 5 days; dose range 0.5-1000 nM
Outline: as §2

MDV3100 [14] = compound: T6, MDV3100; assay: as above; settings: exposure time: 5 days; dose range 0.5-1000 nM
Outline: as §2

[15] = compound: Cn1cc(C2=Nc3cc(NC(=O)C(N)C4CCCCC4)cc4c3C2=CNNC4=O)cn1; assay: as above; settings: exposure time: 5 days; dose range 0.5-1000 nM
Outline: as §2

TIOGUANINE [16] = compound: T7, TIOGUANINE; assay: as above; settings: exposure time: 5 days; dose range 0.5-1000 nM
Outline: as §2

SCC36 HEADNECK
surviving fraction (CANERTINIB [1]; 0.5 nM): 0.715 ± 0.044
surviving fraction (CANERTINIB [1]; 1 nM): 0.747 ± 0.059
surviving fraction (CANERTINIB [1]; 5 nM): 0.645 ± 0.054
surviving fraction (CANERTINIB [1]; 10 nM): 0.753 ± 0.016
surviving fraction (CANERTINIB [1]; 50 nM): 0.741 ± 0.039
surviving fraction (CANERTINIB [1]; 100 nM): 0.747 ± 0.045
surviving fraction (CANERTINIB [1]; 500 nM): 0.328 ± 0.023
surviving fraction (CANERTINIB [1]; 1000 nM): 0.329 ± 0.035
surviving fraction (SNX-5422 [2]; 0.5 nM): 1.05 ± 0.13
surviving fraction (SNX-5422 [2]; 1 nM): 1.11 ± 0.086
surviving fraction (SNX-5422 [2]; 5 nM): 1.19 ± 0.13
surviving fraction (SNX-5422 [2]; 10 nM): 1.19 ± 0.089
surviving fraction (SNX-5422 [2]; 50 nM): 0.434 ± 0.067
surviving fraction (SNX-5422 [2]; 100 nM): 0.27 ± 0.041
surviving fraction (SNX-5422 [2]; 500 nM): 0.0367 ± 0.0064
surviving fraction (SNX-5422 [2]; 1000 nM): 0.039 ± 0.004
surviving fraction (SAPACITABINE [3]; 0.5 nM): 0.776 ± 0.055
surviving fraction (SAPACITABINE [3]; 1 nM): 0.793 ± 0.048
surviving fraction (SAPACITABINE [3]; 5 nM): 0.815 ± 0.05
surviving fraction (SAPACITABINE [3]; 10 nM): 0.797 ± 0.11
surviving fraction (SAPACITABINE [3]; 50 nM): 1.02 ± 0.16
surviving fraction (SAPACITABINE [3]; 100 nM): 0.939 ± 0.092
surviving fraction (SAPACITABINE [3]; 500 nM): 0.737 ± 0.064
surviving fraction (SAPACITABINE [3]; 1000 nM): 0.577 ± 0.0091
surviving fraction (BI-2536 [4]; 0.5 nM): 0.945 ± 0.088
surviving fraction (BI-2536 [4]; 1 nM): 0.897 ± 0.19
surviving fraction (BI-2536 [4]; 5 nM): 0.189 ± 0.011
surviving fraction (BI-2536 [4]; 10 nM): 0.191 ± 0.01
surviving fraction (BI-2536 [4]; 50 nM): 0.291 ± 0.04
surviving fraction (BI-2536 [4]; 100 nM): 0.24 ± 0.018
surviving fraction (BI-2536 [4]; 500 nM): 0.114 ± 0.0061
surviving fraction (BI-2536 [4]; 1000 nM): 0.07 ± 0.0053
surviving fraction (AFATINIB [5]; 0.5 nM): 0.926 ± 0.088
surviving fraction (AFATINIB [5]; 1 nM): 0.719 ± 0.061
surviving fraction (AFATINIB [5]; 5 nM): 0.523 ± 0.037
surviving fraction (AFATINIB [5]; 10 nM): 0.457 ± 0.031
surviving fraction (AFATINIB [5]; 50 nM): 0.418 ± 0.027
surviving fraction (AFATINIB [5]; 100 nM): 0.376 ± 0.029
surviving fraction (AFATINIB [5]; 500 nM): 0.264 ± 0.0053
surviving fraction (AFATINIB [5]; 1000 nM): 0.149 ± 0.017
surviving fraction (MDV3100 [6]; 0.5 nM): 0.992 ± 0.091
surviving fraction (MDV3100 [6]; 1 nM): 0.955 ± 0.1
surviving fraction (MDV3100 [6]; 5 nM): 0.957 ± 0.065
surviving fraction (MDV3100 [6]; 10 nM): 1.11 ± 0.068
surviving fraction (MDV3100 [6]; 50 nM): 1.09 ± 0.028
surviving fraction (MDV3100 [6]; 100 nM): 1.03 ± 0.059
surviving fraction (MDV3100 [6]; 500 nM): 0.924 ± 0.051
surviving fraction (MDV3100 [6]; 1000 nM): 0.907 ± 0.099
surviving fraction ([7]; 0.5 nM): 0.976 ± 0.11
surviving fraction ([7]; 1 nM): 0.979 ± 0.038
surviving fraction ([7]; 5 nM): 1.07 ± 0.062
surviving fraction ([7]; 10 nM): 1.05 ± 0.12
surviving fraction ([7]; 50 nM): 0.753 ± 0.026
surviving fraction ([7]; 100 nM): 0.678 ± 0.045
surviving fraction ([7]; 500 nM): 0.282 ± 0.037
surviving fraction ([7]; 1000 nM): 0.19 ± 0.025
surviving fraction (TIOGUANINE [8]; 0.5 nM): 1.03 ± 0.034
surviving fraction (TIOGUANINE [8]; 1 nM): 1.09 ± 0.028
surviving fraction (TIOGUANINE [8]; 5 nM): 1.16 ± 0.074
surviving fraction (TIOGUANINE [8]; 10 nM): 1.18 ± 0.078
surviving fraction (TIOGUANINE [8]; 50 nM): 1.24 ± 0.082
surviving fraction (TIOGUANINE [8]; 100 nM): 1.12 ± 0.091
surviving fraction (TIOGUANINE [8]; 500 nM): 1.13 ± 0.11
surviving fraction (TIOGUANINE [8]; 1000 nM): 1.06 ± 0.1
area under dose-response curve (CANERTINIB [9]): 2.1
area under dose-response curve (SNX-5422 [10]): 2.06
area under dose-response curve (SAPACITABINE [11]): 2.66
area under dose-response curve (BI-2536 [12]): 1.03
area under dose-response curve (AFATINIB [13]): 1.53
area under dose-response curve (MDV3100 [14]): 3.27
area under dose-response curve [15]: 2.54
area under dose-response curve (TIOGUANINE [16]): 3.72
